Source: patent US8501722B2, “Methods and compositions for treating bacterial infection” (priority 2009, dated 2013)
Several values for one entry are separate records, joined by “and”; a condition that tells them apart may be missing. Identical values can stand only once. Like-named read-outs stand apart in the source and are kept apart here.

How the values were obtained:
SKKanGAS = test: Growth-based turbidometric screen, SKKanGAS under kanamycin (kanamycin resistance gene under ska promoter); type: cell-based, Group A Streptococcus; details: for effect on SKKanGAS and SK-GAS growth: dose response under kanamycin selection, FIG. 11
From the text: A GAS strain was generated to have kanamycin resistance gene under the control of ski promoter to be used to screen for SK inhibitors. A transgenic GAS has been generated in SK(+)GAS host so that kanamycin resistance gene is driven by ska promoter in an extrachromosomal plasmid. The engineered GAS strain (SKKanGAS) was also kanamycin resistant. This kanamycin resistance gene in SK(−)GAS strain is within the omega-Km2 element whose promoter is independent of ska promoter (Khil et al., J. Infect. Dis. 2003; 188:497-505; Ringdahl et al., J. Biol. Chem. 1998; 273:6424-6430). As a result, SK(−)GAS can serve as a control in the screen for SK promoter to weed out compounds that inhibit GAS growth or interfere with kanamycin resistance protein function. […] A cutoff criterion was set to select compounds that can inhibit 50% growth in SKKanGAS while inhibiting less than 10% growth in SK(−)GAS. A total of 95 compounds met this criterion. As a result, these compounds were chosen for dose response assays and pIC50 of growth inhibition of each hit compound was then estimated. […] An example is given as FIG. 10.
Only SKKanGAS is used for screening in the primary screening. Briefly, 30 μl THY medium containing 20 μg/ml kanamycin is first plated into 384-well plates (384 microtiter plate, Corning #3701) and compounds are added into the wells. SKKanGAS strain is grown to OD600 nm=0.8. SKKanGAS is then diluted 12.5 fold into 20 μg/ml kanamycin THY medium. SKKanGAS mixture (10 μl) is added into each well of the 384-well plates. […] The plates are cultured at 37° C. for 16-20 hours. Growth of bacteria in each well is measured by absorbance at 600 nm. Z′>0.5, which is compatible with high throughput screening, has been typically obtained with the 384-well plate format in which 55,000 small compounds have been screened. […] SKKanGAS is a BSL2 level agent and can be stored at −80° C. SKKanGAS can be cultured at 37° C. in THY or Bill medium which is commercially available (Fisher Scientific, Pittsburgh, Pa.).
Once hit compounds have been identified by the primary screening, they are applied to dose response assays with both SKKanGAS and SK(−)GAS stains. SKKanGAS and SK(−)GAS are grown in 20 μg/ml kanamycin with serial dilution of hit compounds (DMSO final concentration=1% in THY medium). Plates are incubated at 37° C. for 15-20 hours in a climate controlled room (humidity 50%). The absorbance is measured at 600 nm. pIC50 of growth inhibition of each hit compound is then determined. Compounds that with at least 10 fold lower IC50 in SKKanGAS than SK(−)GAS strain are identified and subjected to secondary confirmatory assay. As a result, dose response assay identifies and eliminates most nonspecific compounds that may inhibit GAS growth or interfere with kanamycin resistance protein function.

SK(+)GAS = test: GAS growth by OD600 nm of culture; type: cell-based, Group A Streptococcus; details: Streptococcus; for activity at 0.1 µg/mL: read-out: GAS Growth (% control), compound conc. 0.1 μg/ml; for activity at 0.3 µg/mL: read-out: GAS Growth (% control), compound conc. 0.3 μg/ml; for activity at 2.5 µg/mL: read-out: GAS Growth (% control), compound conc. 2.5 μg/ml; for activity at 5 µg/mL: read-out: GAS Growth (% control), compound conc. 5 μg/ml; for activity at 10 µg/mL: read-out: GAS Growth (% control), compound conc. 10 μg/ml; for activity at 20 µg/mL: read-out: GAS Growth (% control), compound conc. 20 μg/ml; for activity at 40 µg/mL: read-out: GAS Growth (% control), compound conc. 40 μg/ml; for activity at 70 µg/mL: read-out: GAS Growth (% control), compound conc. 70 μg/ml
SK(+)GAS (UMAA2616) = test: Survival of human plasminogen transgenic (Tg+) mice infected with GAS; type: in vivo; details: starting one day after infection; for survival of Tg+ mice compared to DMSO control group: UMAA2616 infection, 575096 5 μg per day, 1S-22207 30 μg per day, intraperitoneally daily for 5 days; for survival rate of Tg+ mice compared to DMSO control group: 6*10^5 CFU SK(+)GAS, 5 μg per mouse intraperitoneally daily for 5 days
Procedure: To examine the in vivo efficacy of compounds CCGC, CCGE, and CCGF, Tg+ mice were first infected with 6*10^5 CFU SK(+)GAS, then injected with 5 μg of test compound per mouse intraperitoneally daily for 5 days, starting one day after infection. […] In some embodiments, small compound are delivered continuously through an ALZET® Osmotic Pump (DURECT Corporation, Cupertino, Calif.).
Tg+ mice are then used to test the efficacy of compounds in attenuating the virulence of GAS infection. 20 Tg+ mice are infected with 10^5 CFU of SK(+)GAS then injected with the estimated experimental doses of the compounds two hours later. Survival is monitored for 9 days, while a control group of Tg+ mice will be infected with SK(+)GAS injected with DMSO. The comparison of mortalities between the two groups is analyzed as described above in the toxicity test. Treating mice with compound post-infection helps avoid potential side-effects of toxic or growth inhibition of compound on SK(+)GAS at the time of infection. As a result, the effect of compound on mice survival is a more authentic reflection of the efficacy of compound on inhibiting GAS virulence. Possible scenarios include:
This example describes the in vivo efficacy of compound 575096. Human plasminogen transgenic mice (Tg+) were first infected with 10^5″^6 CFUUMAA2616, then injected with 5-30 lag of test compound per mouse intraperitoneally daily for 5 days, starting one day after infection.

Procedure for streptokinase (SK): SK− Ecoli and SKCtr1's dose response relationship with these compounds were then examined.
The effects of 10 hit compounds out of the 23 identified were further tested by dose response assays. […] These compounds were tested for inhibition of ska expression by measuring SK activity in supernatants of GAS exposed to the test compound or control vehicle alone (DMSO). SK(+)GAS were cultured with hit compounds at a dose range of 10 nM to 100 μM at 37° C. for 16-20 hours. Supernatants of SK(+)GAS cultures were measured for SK activity using chromogenic substrate 2403 (Diapharma group Inc., West Chester, Ohio), according to the manufacturer's instruction and simultaneously monitored for nonspecific effects on GAS growth by measuring OD600 nm.
The positive compounds identified in dose response assays are subjected to SK assay to identify compounds inhibiting SK expression in SK(+)GAS. Briefly, SK(+)GAS is grown at the presence of hit compounds at a dose range determined by dose response assays within which SK(−) GAS growth is inhibited less than 10% while SKKanGAS growth is inhibited more than 50% under 20 μg/ml kanamycin.

Compound | SK Expression (% control) (streptokinase (SK); compound conc. 0.1 μg/ml) | SK Expression (% control) (streptokinase (SK); compound conc. 0.3 μg/ml) | SK Expression (% control) (streptokinase (SK); compound conc. 1.0 μg/ml) | SK Expression (% control) (streptokinase (SK); compound conc. 3 μg/ml) | SK Expression (% control) (streptokinase (SK); compound conc. 5 μg/ml) | SK Expression (% control) (streptokinase (SK); compound conc. 10 μg/ml) | SK Expression (% control) (streptokinase (SK); compound conc. 20 μg/ml) | SK Expression (% control) (streptokinase (SK); compound conc. 40 μg/ml) | activity at 0.1 µg/mL (SK(+)GAS) | activity at 0.3 µg/mL (SK(+)GAS) | activity at 2.5 µg/mL (SK(+)GAS) | activity at 5 µg/mL (SK(+)GAS) | activity at 10 µg/mL (SK(+)GAS) | activity at 20 µg/mL (SK(+)GAS) | activity at 40 µg/mL (SK(+)GAS) | activity at 70 µg/mL (SK(+)GAS) | also measured
CC[C@H]1OC(=O)[C@H](C)[C@@H](O[C@H]2C[C@@](C)(OC)[C@@H](O)[C@H](C)O2)[C@H](C)[C@@H](O[C@@H]2O[C@H](C)C[C@H](N(C)C)[C@H]2O)[C@](C)(O)C[C@@H](C)C(=O)[C@H](C)[C@@H](O)[C@]1(C)O [erythromycin, reference compound] | – | – | – | – | – | – | – | – | – | – | – | – | – | – | – | – | SKKanGAS growth susceptibility to known antibiotics (SKKanGAS; preliminary screening with 2,000 known compounds (The Spectrum Collection)): susceptible
C=CCn1c(SCC#N)nc2c(c1=O)C(C)(C)Cc1ccccc1-2 [1S-22207] | 103 % control and 108 % control and 97 % control and 95 % control | 103 % control and 104 % control and 95 % control and 108 % control | 102 % control and 108 % control and 99 % control and 77 % control | 62 % control and 46 % control and 83 % control and 47 % control | 64 % control and 49 % control and 80 % control | 39 % control and 38 % control and 29 % control and 33 % control and 34 % control | 31 % control and 27 % control | 22 % control and 25 % control and 40 % control | 96% | 98% | 100% | 98% | 96% | 99% | 113% | 126% | survival of Tg+ mice compared to DMSO control group (SK(+)GAS (UMAA2616)): significant improvement in survival
C=CCn1c(SCCCC)nc2c(c1=O)C1(CCCCC1)Cc1ccccc1-2 [CCGE] | – | – | – | – | – | – | – | – | – | – | – | – | – | – | – | – | effect on SKKanGAS and SK-GAS growth (SKKanGAS): specific inhibition of SKKanGAS growth under kanamycin selection; survival rate of Tg+ mice compared to DMSO control group (SK(+)GAS (UMAA2616)): significant improvement in survival rate
COc1cc(C=CC(=O)c2cc(C)c(C)cc2C)cc(OC)c1OC [CCGF] | – | – | – | – | – | – | – | – | – | – | – | – | – | – | – | – | effect on SKKanGAS and SK-GAS growth (SKKanGAS): specific inhibition of SKKanGAS growth under kanamycin selection; survival rate of Tg+ mice compared to DMSO control group (SK(+)GAS (UMAA2616)): trend toward improvement
C=CCn1c(NCC)nc2c(c1=O)C1(CCCCC1)Cc1ccccc1-2 [CCG-203043, 3-allyl-2-(ethylamino)-3H-spiro[benzo[h]quinazoline-5,1′-cyclohexan]-4(6H)-one] | 96 % control | 96 % control | 94 % control | 62 % control | – | 41 % control | – | – | 101% | 104% | 106% | 116% | – | 113% | 115% | 124% | SK Expression (% control) (streptokinase (SK); compound conc. 30 μg/ml): 32 % control; SK Expression (% control) (streptokinase (SK); compound conc. 60 μg/ml): 24 % control
C=CCn1c(SCCCC)nc2c(c1=O)C1(CCCCC1)Cc1ccccc1-2 [compound 575096] | 77 % control and 83 % control and 95 % control | 108 % control and 95 % control and 127 % control | 65 % control and 69 % control and 84 % control | 61 % control and 62 % control and 69 % control | 50 % control | – | – | 68 % control and 51 % control and 69 % control and 76 % control | 97% | 102% | – | 101% | 102% | 84% | – | – | SK Expression (% control) (streptokinase (SK); compound conc. 50 μg/ml): 65 % control and 66 % control and 83 % control; SK Expression (% control) (streptokinase (SK); compound conc. 70 μg/ml): 40 % control and 61 % control; activity at 1 µg/mL (SK(+)GAS; read-out: GAS Growth (% control), compound conc. 1 μg/ml): 102%; activity at 3 µg/mL (SK(+)GAS; read-out: GAS Growth (% control), compound conc. 3 μg/ml): 100%; survival of Tg+ mice compared to DMSO control group (SK(+)GAS (UMAA2616)): significant improvement in survival
C=CCn1c(SC)nc2c(c1=O)C1(CCCCC1)Cc1ccccc1-2 [CCG-102620, 3-Allyl-2-(methylthio)-3H-spiro[benzo[h]quinazoline-5,1′-cyclohexan]-4(6H)-one] | – | – | – | – | 62 % control | 50 % control | 33 % control | 27 % control | – | – | – | 104% | 106% | 104% | 115% | – | –
C=CCn1c(SCCN(C)C)nc2c(c1=O)C1(CCCCC1)Cc1ccccc1-2 [CCG-102495, 3-allyl-2-(2-(dimethylamino)ethylthio)-3H-spiro[benzo[h]quinazoline-5,1′-cyclohexan]-4(6H)-one] | – | – | – | – | – | – | 17 % control | – | – | – | – | – | – | 18% | – | – | –
C=CCn1c(SCc2ccccn2)nc2c(c1=O)C(C)(C)Cc1ccccc1-2 [CCG-203039, 3-Allyl-5,5-dimethyl-2-(pyridin-2-ylmethylthio)-5,6-dihydrobenzo[h]quinazolin-4(3H)-one] | 94 % control | 95 % control | 93 % control | 58 % control | – | 49 % control | – | – | 100% | 100% | 104% | 100% | – | 104% | 115% | 135% | SK Expression (% control) (streptokinase (SK); compound conc. 30 μg/ml): 35 % control; SK Expression (% control) (streptokinase (SK); compound conc. 60 μg/ml): 27 % control
